Reference: US9457033B2, “Steroid alkaloids and uses thereof as antimicrobial agents against electron transport-deficient microbes and as potentiators for antimicrobial agents against pathogenic bacteria” (priority 2011, dated 2016)
Values after ≈ are worked out from the molar mass of the structure shown. Read-outs that look alike come from different tables or passages of the source.

Assays:
S. aureus SCV CF41A-S = experiment: microbe, parasite or virus in culture; format: cell-based; conditions: Staphylococcus aureus, SCVCF41AS, 24 h, read-out: Diameter of inhibition zone
[1] = system: Clostridium perfringens ATCC 13124; experiment: microbe, parasite or virus in culture; format: cell-based; conditions: ATCC13124, 48 h, read-out: Diameter of inhibition zone
normal strain CF07-L = experiment: Broth growth with gentamicin or tomatidine, visually evaluated (FIG. 5A); conditions: gentamicin at 4 μg/ml or tomatidine at 0.12 μg/ml alone, 48 h
S. aureus ATCC 29213 = experiment: MIC, microdilution in BHI 48 h (Examples 1, 3); format: cell-based, Staphylococcus aureus
S. aureus SCV CF1D-S = experiment: MIC, microdilution in BHI 48 h; format: cell-based, Staphylococcus aureus; conditions: Staphylococcus aureus, SCVCF1DS
SCV strain CF07-S = experiment: Time-kill experiment (FIG. 1C); format: cell-based, Staphylococcus aureus; conditions: tomatidine at 0.25 μg/ml (2×MIC)
Protocol: (225 RPM), bacteria were sampled, serially diluted and plated on tryptic soy agar (TSA) for colony-forming unit (CFU) determinations (i.e., viable bacterial counts). Plates were incubated for 24 or 48 h at 35° C. for normal and SCV strains, respectively. The antibacterial activities of tomatidine and control antibiotics (erythromycin (a bacteriostatic macrolide) and ciprofloxacin (a bactericidal fluoroquinolone) against the normal CF07-L strain and the SCV CF07-S as a function of time are presented in FIGS. 1B and 1C, respectively. The antibacterial activity of tomatine against the SCV strain was also evaluated (TN in FIG. 1C).

[2] = system: S. aureus CF07-L (normal strain); experiment: MIC, microdilution in BHI 48 h (Examples 1, 3); format: cell-based, Staphylococcus aureus
[3] = system: S. aureus SCV NewbouldΔhemB; experiment: MIC, microdilution in BHI 48 h; format: cell-based, Staphylococcus aureus; conditions: Staphylococcus aureus
[4] = system: S. aureus Newbould (normal strain); experiment: MIC, microdilution in BHI 48 h; format: cell-based, Staphylococcus aureus; conditions: Staphylococcus aureus; Newbould, normal strain; read-out: MIC
S. aureus SCV CF07-S = experiment: MIC, microdilution in BHI 48 h (Examples 1, 3); format: cell-based, Staphylococcus aureus
[5] = system: S. aureus CF1A-L (normal strain); experiment: MIC, microdilution in BHI 48 h; format: cell-based, Staphylococcus aureus; conditions: Staphylococcus aureus; CF1A-L, normal strain; read-out: MIC

## C[C@H]1CC[C@]2(NC1)O[C@H]1C[C@H]3[C@@H]4CC[C@H]5C[C@@H](O)CC[C@]5(C)[C@H]4CC[C@]3(C)[C@H]1[C@@H]2C [Tomatidine, tomatidine]
S. aureus SCV CF41A-S
  zone of inhibition at 50 µg/disc: 21.5 mm
[1]
  zone of inhibition at 50 µg/disc: 11 mm
Normal strain CF07-L
  growth, visually evaluated: does not
S. aureus ATCC 29213; ATCC 29213 + HQNO at 20 μg/ml
  MIC: 0.12 to 0.25 µg/mL
S. aureus ATCC 29213; ATCC 29213, without HQNO
  MIC: >16 µg/mL
S. aureus ATCC 29213; ATCC 29213 in MHBCA
  MIC: >16 µg/mL
S. aureus ATCC 29213; Staphylococcus aureus, ATCC29213, ATCC 29213 in BHI, read-out: MIC
  MIC: > 16 µg/mL
S. aureus ATCC 29213; Staphylococcus aureus, ATCC29213, ATCC 29213, 1 μg/ml CCCP, read-out: MIC in presence of CCCP
  MIC: 0.12 µg/mL
S. aureus SCV CF1D-S
  MIC: 0.12 µg/mL (≈ 0.289 µM)
SCV strain CF07-S
  time-kill effect on growth and viability: induced bacteriostasis
[2]; CF07-L + HQNO at 20 μg/ml
  MIC: 0.5 µg/mL
[2]; CF07-L, without HQNO
  MIC: >16 µg/mL
[2]; Staphylococcus aureus, CF07-L, normal strain, read-out: MIC
  MIC: > 16 µg/mL
[3]
  MIC: 0.12 µg/mL (≈ 0.289 µM)
[4]
  MIC: > 16 µg/mL
S. aureus SCV CF07-S; CF07-S + HQNO at 20 μg/ml
  MIC: 0.12 µg/mL
S. aureus SCV CF07-S; CF07-S, without HQNO
  MIC: 0.12 µg/mL (≈ 0.289 µM)
S. aureus SCV CF07-S; Staphylococcus aureus, SCVCF07S
  MIC: 0.12 µg/mL (≈ 0.289 µM)
[5]
  MIC: > 16 µg/mL
